Experimental data taken from patent US20100120715A1, “BETA-LACTAMASE INHIBITORS” (priority 2007, published 2010).
Like-named read-outs stand apart in the source and are kept apart here.

Legend:
[1] = tested on: K. pneumoniae expressing the Class A ESBL CTX-M-15; assay: microbe, parasite or virus in culture; format: cell-based; conditions: for MIC of example compound, K. pneumoniae CTX-M-15 + 8 μg/mL CAZ: in the presence of fixed 8 μg/mL Ceftazidime
[2] = tested on: K. pneumoniae expressing the Class A carbapenemase KPC-2; assay: microbe, parasite or virus in culture; conditions: for MIC of example compound, K. pneumoniae KPC-2 + 8 μg/mL CAZ: in the presence of fixed 8 μg/mL Ceftazidime
[3] = tested on: E. coli expressing the Class A ESBL SHV-5; assay: microbe, parasite or virus in culture; format: cell-based; conditions: for MIC of example compound, E. coli SHV-5 + 8 μg/mL CAZ: in the presence of fixed 8 μg/mL Ceftazidime
[4] = tested on: E. cloacae expressing the Class C P99+ AmpC; assay: microbe, parasite or virus in culture; format: cell-based; conditions: for MIC of example compound, E. cloacae P99 AmpC + 8 μg/mL CAZ: in the presence of fixed 8 μg/mL Ceftazidime
Method in brief: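 Broth microdilution potentiation assay in cation-adjusted Mueller Hinton broth: compound was titrated 8 to 0.015 μg/mL final against a fixed 8 μg/ml cephalosporin. Strains were pre-grown 3-5 h with 50 μg/mL ampicillin and inoculated per CLSI. MIC was read visually after 16-20 h at 37° C.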

Class A ESBL SHV-5 = target: T1, Class A ESBL SHV-5 (Klebsiella pneumoniae, UniProt P0A3M1); format: biochemical, E. coli; conditions: nitrocefin 100 μM, PBS pH 7.0, read-out: SHV-5 IC50 Range
T1 construct: made in house; host or cells: E. coli BL21(DE3) for purified enzyme; E. coli cells containing SHV-5 for extracts
T1 sequence (P0A3M1 22-286): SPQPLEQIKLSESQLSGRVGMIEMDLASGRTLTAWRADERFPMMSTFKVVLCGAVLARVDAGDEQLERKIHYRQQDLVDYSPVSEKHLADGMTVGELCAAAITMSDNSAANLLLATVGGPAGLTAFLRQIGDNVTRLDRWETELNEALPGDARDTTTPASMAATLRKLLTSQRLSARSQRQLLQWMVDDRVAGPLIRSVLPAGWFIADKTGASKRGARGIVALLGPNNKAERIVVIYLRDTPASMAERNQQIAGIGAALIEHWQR

Class A ESBL CTXM-15 = target: T2, Class A ESBL CTXM-15 (Escherichia coli, UniProt Q9EXV5); assay: β-lactamase enzyme inhibition (nitrocefin hydrolysis), CTXM-15; format: biochemical; conditions: purified enzyme; nitrocefin 100 μM, PBS pH 7.0; read-out: CTXM-15 IC50 Range
T2 construct: made in house; host or cells: E. coli BL21(DE3)
T2 sequence (Q9EXV5 entry or part of it): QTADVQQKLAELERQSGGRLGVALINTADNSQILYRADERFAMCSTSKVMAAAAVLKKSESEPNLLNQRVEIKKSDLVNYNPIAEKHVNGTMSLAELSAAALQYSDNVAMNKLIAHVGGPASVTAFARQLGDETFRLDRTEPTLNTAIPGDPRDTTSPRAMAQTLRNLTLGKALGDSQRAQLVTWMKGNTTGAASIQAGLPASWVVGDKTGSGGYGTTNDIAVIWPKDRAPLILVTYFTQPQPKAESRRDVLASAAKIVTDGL
Method in brief: (§1)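 Native untagged enzymes were expressed in E. coli BL21(DE3) and purified by cation exchange and gel filtration. Compound series (100–0.005 μM in PBS pH 7.0, before addition of an equal enzyme volume) were preincubated with enzyme 10 min at 37°C. Nitrocefin (100 μM final) hydrolysis was read kinetically at 486 nm for 10 min, and IC50 was taken as 50% reduction of initial rate versus no-inhibitor wells.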

Class C P99 AmpC = target: T3, Class C P99 AmpC (Enterobacter cloacae, UniProt P05364); format: biochemical; conditions: purified enzyme; nitrocefin 100 μM, PBS pH 7.0; read-out: P99 AmpC IC50 Range
T3 construct: made in house; host or cells: E. coli BL21(DE3)
T3 sequence (P05364 21-381): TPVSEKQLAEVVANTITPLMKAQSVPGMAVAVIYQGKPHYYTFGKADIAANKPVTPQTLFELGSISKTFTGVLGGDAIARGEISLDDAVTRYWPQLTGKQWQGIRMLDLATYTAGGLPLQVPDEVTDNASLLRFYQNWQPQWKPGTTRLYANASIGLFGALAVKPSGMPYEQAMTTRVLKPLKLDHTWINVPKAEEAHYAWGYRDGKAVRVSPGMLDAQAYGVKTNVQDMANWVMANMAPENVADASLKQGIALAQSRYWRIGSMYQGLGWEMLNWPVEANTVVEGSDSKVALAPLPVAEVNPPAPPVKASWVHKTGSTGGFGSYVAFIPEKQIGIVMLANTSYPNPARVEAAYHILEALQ
Method in brief: as §1

[5] = target: T4, Class A carbapenemase KPC-2 (Klebsiella pneumoniae, UniProt Q9F663); assay: β-lactamase enzyme inhibition (nitrocefin hydrolysis), KPC-2; format: biochemical; conditions: purified enzyme; nitrocefin 100 μM, PBS pH 7.0; read-out: KPC-2 IC50 Range
T4 construct: made in house; host or cells: E. coli BL21(DE3)
T4 sequence (Q9F663 25-293 limits assumed): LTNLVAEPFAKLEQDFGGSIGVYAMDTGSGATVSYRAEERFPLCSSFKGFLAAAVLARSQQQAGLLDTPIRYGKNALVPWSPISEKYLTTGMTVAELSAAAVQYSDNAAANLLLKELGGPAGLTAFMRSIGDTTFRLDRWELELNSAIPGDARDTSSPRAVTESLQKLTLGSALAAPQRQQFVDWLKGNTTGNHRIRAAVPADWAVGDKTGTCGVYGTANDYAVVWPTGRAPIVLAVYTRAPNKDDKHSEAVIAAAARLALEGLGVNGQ
Method in brief: as §1

[6] = Klebsiella pneumoniae, read-out: MIC alone
[7] = cellular extracts of E. coli containing SHV-5 (Examples 2-30)
[8] = purified beta-lactamase enzyme (Examples 1 and 31-64)

SMILES	MIC [1, 6]	MIC [2, 6]	MIC ([3]; Escherichia coli, read-out: MIC alone)	MIC ([4]; Enterobacter cloacae, read-out: MIC alone)	MIC of example compound, K. pneumoniae CTX-M-15 + 8 μg/mL CAZ [1]	IC50 (Class A ESBL SHV-5; [7])	MIC of example compound, K. pneumoniae KPC-2 + 8 μg/mL CAZ [2]	IC50 (Class A ESBL CTXM-15)	MIC of example compound, E. coli SHV-5 + 8 μg/mL CAZ [3]	MIC of example compound, E. cloacae P99 AmpC + 8 μg/mL CAZ [4]	IC50 (Class C P99 AmpC)	IC50 [5]	IC50 (Class A ESBL SHV-5; [8])
CC(C)(O/N=C(\C(=O)N[C@@H]1C(=O)N2C(C(=O)[O-])=C(C[n+]3ccccc3)CS[C@H]12)c1csc(N)n1)C(=O)O [Ceftazidime, reference compound]	128 µg/mL	32 µg/mL	> 1020 µg/mL	128 µg/mL									
Cl.NCCOc1cccc(CC(=O)N[C@@H](Cc2cccc(C(=O)O)c2O)B(O)O)c1 [Example 4, (1R)-1-[3-(2-amino)-ethoxy-phenyl]acetylamino-1-(3-carboxy-2-hydroxy)benzyl-methylboronic acid hydrochloride]					C (C represents an MIC of <1 μg/mL)	< 10 nM	C (C represents an MIC of <1 μg/mL)	< 10 nM	C (C represents an MIC of <1 μg/mL)	C (C represents an MIC of <1 μg/mL)	< 10 nM		
O=C(Cc1ccccc1)N[C@@H](Cc1cccc(C(=O)O)c1O)B(O)O [Example 10, (1R)-1-(2-phenylacetylamino)-2-(2-hydroxy-3-carboxyphenyl)ethyl-1-boronic acid]					C (C represents an MIC of <1 μg/mL)	< 10 nM	C (C represents an MIC of <1 μg/mL)	< 10 nM	C (C represents an MIC of <1 μg/mL)	C (C represents an MIC of <1 μg/mL)	< 10 nM		
COc1ccc(OC)c(CC(=O)N[C@@H](Cc2cccc(C(=O)O)c2O)B(O)O)c1 [Example 17, (1R)-1-(2-(2,5-dimethoxyphenyl)-acetylamino)-2-(2-hydroxy-3-carboxyphenyl)ethyl-1-boronic acid]					C (C represents an MIC of <1 μg/mL)	< 10 nM		< 10 nM	A (A represents an MIC >8 μg/mL)	C (C represents an MIC of <1 μg/mL)	< 10 nM	< 10 nM	
CCCCC(=O)N[C@@H](Cc1cccc(C(=O)O)c1O)B(O)O [Example 23, (1R)-1-(pentanoylamino)-2-(2-hydroxy-3-carboxyphenyl)ethyl-1-boronic acid]					C (C represents an MIC of <1 μg/mL)	10 to 100 nM	C (C represents an MIC of <1 μg/mL)	< 10 nM	C (C represents an MIC of <1 μg/mL)	C (C represents an MIC of <1 μg/mL)	10 to 100 nM	< 10 nM	
O=C(N[C@@H](Cc1cccc(C(=O)O)c1O)B(O)O)c1ccc(F)cc1 [Example 26, (1R)-1-(4-Fluorobenzoylamino)-(3-carboxy-2-hydroxy)benzyl-methylboronic acid]					C (C represents an MIC of <1 μg/mL)	10 to 100 nM	C (C represents an MIC of <1 μg/mL)	< 10 nM		C (C represents an MIC of <1 μg/mL)	< 10 nM	< 10 nM	
O=C(N[C@@H](Cc1cccc(C(=O)O)c1O)B(O)O)c1ccc(O)cc1 [Example 36, (1R)-1-(4-Hydroxybenzoyl)-amino-1-(3-carboxy-2-hydroxy)benzyl-methylboronic acid]					C (C represents an MIC of <1 μg/mL)		C (C represents an MIC of <1 μg/mL)	< 10 nM		C (C represents an MIC of <1 μg/mL)	< 10 nM	< 10 nM	100 to 1000 nM
CC(=O)NCC(=O)N[C@@H](Cc1cccc(C(=O)O)c1O)B(O)O [Example 37, (1R)-1-(2-acetamidoacetylamino)-2-(2-hydroxy-3-carboxyphenyl)ethyl-1-boronic acid]					C (C represents an MIC of <1 μg/mL)		C (C represents an MIC of <1 μg/mL)	10 to 100 nM		C (C represents an MIC of <1 μg/mL)	10 to 100 nM	10 to 100 nM	10 to 100 nM
Nc1nc(CC(=O)N[C@@H](Cc2cccc(C(=O)O)c2O)B(O)O)cs1.O=CO [Example 39, (1R)-1-(2-Amino-thiazol-4-yl)-acetylamino-1-(3-carboxy-2-hydroxy)benzyl-methylboronic acid formate salt]					C (C represents an MIC of <1 μg/mL)		C (C represents an MIC of <1 μg/mL)	< 10 nM	C (C represents an MIC of <1 μg/mL)	C (C represents an MIC of <1 μg/mL)	< 10 nM	100 to 1000 nM	< 10 nM
NCC(=O)N[C@@H](Cc1cccc(C(=O)O)c1O)B(O)O.O=CO [Example 41, (1R)-1-(2-aminoacetylamino)-2-(2-hydroxy-3-carboxyphenyl)ethyl-1-boronic acid formate salt]					A (A represents an MIC >8 μg/mL)		C (C represents an MIC of <1 μg/mL)	100 to 1000 nM	A (A represents an MIC >8 μg/mL)	A (A represents an MIC >8 μg/mL)	> 1000 nM	10 to 100 nM	> 1000 nM
O=C(N[C@@H](Cc1cccc(C(=O)O)c1O)B(O)O)c1ccno1 [Example 46, (1R)-1-(isoxazole-5-carbonyl-amino)-2-(2-hydroxy-3-carboxyphenyl)ethyl-1-boronic acid]					C (C represents an MIC of <1 μg/mL)		C (C represents an MIC of <1 μg/mL)	< 10 nM		C (C represents an MIC of <1 μg/mL)	< 10 nM	10 to 100 nM	< 10 nM
CC(=O)N1CCC(C(=O)N[C@@H](Cc2cccc(C(=O)O)c2O)B(O)O)CC1 [Example 49, (1R)-1-(1-Acetyl-piperidine-4-carbonyl)-amino-1-(3-carboxy-2-hydroxy)benzyl-methylboronic acid]					C (C represents an MIC of <1 μg/mL)		C (C represents an MIC of <1 μg/mL)	10 to 100 nM		C (C represents an MIC of <1 μg/mL)	10 to 100 nM	< 10 nM	100 to 1000 nM
Cl.O=C(Cc1ccncc1)N[C@@H](Cc1cccc(C(=O)O)c1O)B(O)O [Example 52, (1R)-1-(4-Pyridylacetylamino)-2-(2-hydroxy-3-carboxyphenyl)ethyl-1-boronic acid hydrochloride]					C (C represents an MIC of <1 μg/mL)		C (C represents an MIC of <1 μg/mL)	< 10 nM	C (C represents an MIC of <1 μg/mL)	C (C represents an MIC of <1 μg/mL)	< 10 nM	< 10 nM	< 10 nM
O=C(N[C@@H](Cc1cccc(C(=O)O)c1O)B(O)O)c1cnc2ccccc2n1 [Example 54, (1R)-1-(Quinoxaline-2-carbonyl-amino)-2-(2-hydroxy-3-carboxyphenyl)ethyl-1-boronic acid]					A (A represents an MIC >8 μg/mL)			< 10 nM	A (A represents an MIC >8 μg/mL)	A (A represents an MIC >8 μg/mL)	< 10 nM	< 10 nM	10 to 100 nM
O=C(N[C@@H](Cc1cccc(C(=O)O)c1O)B(O)O)c1cn2ccsc2n1 [Example 56, (1R)-1-(Imidazo[2,1-b]thiazole-6-carbonyl-amino)-2-(2-hydroxy-3-carboxyphenyl)ethyl-1-boronic acid]					A (A represents an MIC >8 μg/mL)			10 to 100 nM	A (A represents an MIC >8 μg/mL)	A (A represents an MIC >8 μg/mL)	100 to 1000 nM	100 to 1000 nM	10 to 100 nM
